The target in this assay is FGFR1 (Homo sapiens (Human), UniProt P11362). In words: RBC NanoBRET Assay for Target Engagement in HEK293 cells transfected with FGFR1-NanoLuc Fusion vector. Format: cell-based. As to conditions: 1 hour, tracer K5 1 μM. How it is done: Cellular Assay. The RBC NanoBRET Assay for Target Engagement was performed by Reaction Biology Corporation, 1 Great Valley Parkway, Suite 2 Malvern, PA 19355, USA. The assay was conducted in HEK293 cells transiently transfected with FGFR1-NanoLuc Fusion vector. The HEK293 cells (ATCC) were transfected with 1 μg of FGFR1-NanoLuc Fusion vector in 384-well format and the transfected cells were subsequently treated with the test compounds (starting at 10 μM, 10-dose with 3-fold dilution) for 1 hour using CTx-0294885 as the reference standard and K5 (1 μM) was used as the tracer. FGFR1 target engagement was measured and the curve fits were performed only when % NanoBret signal at the highest concentration of compounds was less than 55%.
Chain of FGFR1 (P11362 22-822): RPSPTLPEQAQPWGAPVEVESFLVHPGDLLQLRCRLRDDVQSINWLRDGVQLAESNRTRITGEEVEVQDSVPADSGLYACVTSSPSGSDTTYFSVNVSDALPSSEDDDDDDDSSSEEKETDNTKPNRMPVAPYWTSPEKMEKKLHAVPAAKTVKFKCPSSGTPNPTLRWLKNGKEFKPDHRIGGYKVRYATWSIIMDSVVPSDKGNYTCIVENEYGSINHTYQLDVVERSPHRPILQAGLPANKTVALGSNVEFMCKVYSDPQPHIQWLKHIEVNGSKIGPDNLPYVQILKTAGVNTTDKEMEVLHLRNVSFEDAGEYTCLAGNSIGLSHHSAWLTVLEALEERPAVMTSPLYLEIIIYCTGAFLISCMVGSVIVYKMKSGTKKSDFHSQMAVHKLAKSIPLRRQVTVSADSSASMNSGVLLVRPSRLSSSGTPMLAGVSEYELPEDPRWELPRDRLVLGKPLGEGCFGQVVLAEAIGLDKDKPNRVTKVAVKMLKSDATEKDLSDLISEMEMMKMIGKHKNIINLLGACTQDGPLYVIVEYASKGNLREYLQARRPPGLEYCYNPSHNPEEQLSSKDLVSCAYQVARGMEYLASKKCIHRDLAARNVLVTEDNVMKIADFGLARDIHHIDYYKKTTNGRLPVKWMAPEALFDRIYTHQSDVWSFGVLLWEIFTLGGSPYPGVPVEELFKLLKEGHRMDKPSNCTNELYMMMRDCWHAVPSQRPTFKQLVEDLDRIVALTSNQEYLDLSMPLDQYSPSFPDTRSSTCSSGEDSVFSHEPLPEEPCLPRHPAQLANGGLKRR
In general terms: Bioluminescence resonance energy transfer reports proximity on the nanometre scale.

Broadly, the IC50 is the concentration at which inhibition is half-maximal. A lower IC50 goes with greater potency. Consider `CNC(=O)c1ccccc1Nc1nc(Nc2ccc(N3CCNCC3)cc2)ncc1Cl` [CTx-0294885, reference compound], for which the IC50 is 35 nM.
